Test in all cases: NCI tumour cell line growth inhibition, 48 h
In assay [1] the test system is SK-MEL-2.
For assay [2], the system named is UACC-257.
Assay [3] concerns OVCAR-8.
Assay [4] deals with OVCAR-3.
Assay [5] concerns SK-MEL-5.
Assay [6] relates to SW-620.
Assay [7] concerns SF-539.
The test system of assay [8] is MOLT-4.
The test system of assay [9] is SNB-75.
For assay [10], the system named is HL-60.
Assay [11] relates to ACHN.
The subject of assay [12] is A498.
The subject of assay [13] is TK-10.
The test system of assay [14] is NCI-H23.
In assay [15] the test system is HOP-62.
For assay [16], the system named is M14.
Assay [17] has as its system UO-31.
Assay [18] relates to RXF 393.

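These data come from cells grown in 96-well plates and exposed to compound for 48 hours at five concentrations. GI50 is the concentration that inhibits growth by half.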 Calls of active or inactive are those of the source. Rule as the data show it: active = GI50 up to about 1.1 µM and inactive = higher.

Turning to `Oc1cc(-c2ccc(Oc3ccccc3)cc2)nc2cc3c(cc12)OCO3`, the GI50 in assay [1], in assay [2], in [3], in assay [4], in assay [5] and in assay [6] was > 100 µM (inactive) in each case. Further, the GI50 in assay [7] is > 100 µM (inactive); in [8], > 100 µM (inactive); in [9] it was 27.2 µM (inactive); in [10], > 100 µM (inactive); in assay [11], > 100 µM (inactive); in assay [12], > 100 µM (inactive). For the same molecule, the GI50 is > 100 µM (inactive) in [13]; > 100 µM (inactive) in assay [14]; > 100 µM (inactive) in assay [15]; > 100 µM (inactive) in [16]; > 100 µM (inactive) in [17]; 57.5 µM (inactive) in assay [18].

With `CCOC(=O)NC(=O)c1cn(CCN2CCN(c3ncnc4[nH]cnc34)CC2)c(=O)[nH]c1=O`, the GI50 in assay [1], in assay [2], in [3], in assay [4], in assay [5] and in [6] was > 100 µM (inactive) each time. Further, the GI50 in [7], in assay [8], in assay [9], in assay [10], in [11] and in [12] was > 100 µM (inactive) each time. The GI50 in assay [13], in assay [14], in assay [15], in assay [16], in [17] and in [18] was > 100 µM (inactive) in each case.

As for `CCO/C(CCn1[nH]c(=O)c(Cl)c(Cl)c1=O)=N\NC(=O)C(=O)NN`, the GI50 in assay [1], in assay [2], in assay [3], in assay [4], in [5] and in assay [6] was > 100 µM (inactive) throughout. In addition, the GI50 was > 100 µM (inactive) in assay [7]; > 100 µM (inactive) in [8]; > 100 µM (inactive) in assay [9]; > 100 µM (inactive) in assay [10]; > 100 µM (inactive) in assay [11]; 82.8 µM (inactive) in assay [12]. For the same molecule, the GI50 in [13], in assay [14], in [15], in [16], in assay [17] and in assay [18] was > 100 µM (inactive) in each case.

With `Cc1cccc(NC(=O)Cc2nc3ccccc3s2)c1C`, the GI50 in assay [1], in assay [2], in assay [3], in assay [4], in assay [5] and in assay [6] was > 100 µM (inactive) in each case. The GI50 in assay [7] is > 100 µM (inactive); in assay [8], > 100 µM (inactive); in assay [9], > 100 µM (inactive); in assay [10], > 100 µM (inactive); in assay [11], > 100 µM (inactive); in assay [12], 83.8 µM (inactive). Besides, the GI50 in assay [13], in assay [14], in [15], in assay [16], in [17] and in assay [18] was > 100 µM (inactive) in each case.

Consider `COc1ccc2nc3cc(Cl)ccc3c(Sc3ccc([N+](=O)[O-])cc3)c2c1`, for which the GI50 in assay [1], in [2], in assay [3], in [4], in assay [5] and in [6] was > 10 µM (inactive) each time. Besides, the GI50 was > 10 µM (inactive) in assay [7]; > 10 µM (inactive) in assay [8]; 34.1 µM (inactive) in assay [9]; > 100 µM (inactive) in assay [10]; > 10 µM (inactive) in [11]; > 10 µM (inactive) in assay [12]. The GI50 in assay [13], in assay [14], in assay [15], in [16], in assay [17] and in [18] was > 10 µM (inactive) throughout.

With `CC1=C(C(=O)NCc2ccccc2)C(c2ccc(N(C)C)cc2)C(C(=O)NCc2ccccc2)=C(C)N1`, the GI50 in assay [1], in [2], in assay [3], in [4], in [5] and in [6] was > 100 µM (inactive) throughout. For the same molecule, the GI50 in assay [7] is > 100 µM (inactive); in [8] it was > 100 µM (inactive); in assay [9], 29.3 µM (inactive); in [10], > 100 µM (inactive); in [11] it was > 100 µM (inactive); in [12] it was > 100 µM (inactive). Besides, the GI50 in assay [13] is > 100 µM (inactive); in [14], > 100 µM (inactive); in [15], > 100 µM (inactive); in assay [16], > 100 µM (inactive); in [17], > 100 µM (inactive); in [18], 11.7 µM (inactive).

As to `c1ccc(CNc2ccc3[nH]c4cnccc4c3c2)cc1`, the GI50 in assay [1] was 17.7 µM (inactive); in assay [2], 17.4 µM (inactive); in [3], 17.5 µM (inactive); in assay [4], 14 µM (inactive); in assay [5], 15.2 µM (inactive); in assay [6], 19.9 µM (inactive). The GI50 in assay [7] is 18.1 µM (inactive); in assay [8], 14 µM (inactive); in assay [9], 6.89 µM (inactive); in assay [10] it was 11 µM (inactive); in assay [11], 15.1 µM (inactive); in assay [12] it was 15 µM (inactive). The GI50 in assay [13] was 20 µM (inactive); in assay [14], 15.1 µM (inactive); in [15] it was 17.2 µM (inactive); in [16] it was 18 µM (inactive); in [17], 15.5 µM (inactive); in assay [18] it was 13.6 µM (inactive).

As to `CCCCCCCCCCCC1CC(=O)NCCCN(C)CCCCN(C)CCCN1C` (centres undefined) [BUDMUNCHIAMINE A], the GI50 in [1] is 1.75 µM (inactive); in [2] it was 1.68 µM (inactive); in assay [3] it was 1.89 µM (inactive); in assay [4], 1.69 µM (inactive); in [5], 1.97 µM (inactive); in assay [6], 1.06 µM (active). Further, the GI50 in assay [7] is 1.75 µM (inactive); in assay [8], 1.95 µM (inactive); in assay [9], 1.59 µM (inactive); in assay [10] it was 0.395 µM (active); in [11] it was 1.69 µM (inactive); in assay [12], 1.67 µM (inactive). The GI50 in assay [13] was 1.73 µM (inactive); in [14], 1.73 µM (inactive); in assay [15] it was 1.66 µM (inactive); in assay [16], 1.8 µM (inactive); in assay [17], 1.72 µM (inactive); in [18], 1.6 µM (inactive).

The record behind these values is ChEMBL document CHEMBL1201862, “PubChem BioAssay data set” (2004).
